Measured values published in PMC9940851, “Seleno Containing Compounds as Potent and Selective Antifungal Agents” (ACS Infectious Diseases, 2022).
Values after ≈ are worked out from the molar mass of the structure shown.

Key:
[1] = molecular target: T1, MgCA (Malassezia globosa, UniProt A8Q1N3); experiment: stopped-flow CO2 hydrase assay; format: biochemical
T1 construct: gene MGL_1814
T1 sequence (A8Q1N3 1-241): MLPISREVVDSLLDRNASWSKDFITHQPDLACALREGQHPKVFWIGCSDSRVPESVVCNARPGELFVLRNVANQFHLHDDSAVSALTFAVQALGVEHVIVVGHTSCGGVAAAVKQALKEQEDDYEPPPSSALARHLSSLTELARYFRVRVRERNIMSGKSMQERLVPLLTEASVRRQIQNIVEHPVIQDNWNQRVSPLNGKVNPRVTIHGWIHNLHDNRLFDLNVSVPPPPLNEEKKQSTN
Method in brief: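 Stopped-flow recording over 10–100 s followed CO2 hydration (1.7–17 mM CO2) in 20 mM Hepes pH 7.4 plus 20 mM Na2SO4, using 0.2 mM phenol red at 557 nm, after recombinant carbonic anhydrase (5–12 nM) had been preincubated with inhibitor for 15 min at room temperature. Initial rates, corrected for uncatalysed rates, came from at least six traces, and at least three determinations were averaged. Ki was calculated by nonlinear least-squares fitting with the Cheng-Prusoff equation.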

[2] = tested on: T2, M. globosa ATCC MYA 4612; experiment: microbe, parasite or virus in culture; details: Malassezia globosa
T2 construct: ATCC MYA 4612
Protocol: (§1) Inoculum preparations for antifungal assays were performed following the CLSI guidelines for antifungal susceptibility testing of yeasts.[31] Antifungal activity was evaluated on unicellular yeasts Candida albicans ATCC 10231, Candida glabrata ATCC 90030 (DSMZ 11226), Malassezia pachydermatis CDC 16334 (DSMZ 6172), Malassezia globosa ATCC MYA 4612, and Malassezia furfur ATCC 14521. All the fungal strains were stored at −80 °C in cryovials. Then Candida spp. and Malassezia pachydermatis were reactivated in RPMI 1640 broth for 24–48 h at 35 °C. The so obtained fresh cultures were streaked onto Sabouraud dextrose agar and incubated for 24–48 h at 35 °C. Malassezia globosa and furfur were reactivated in modified RPMI 1640 broth[32] for 24–48 h at 35 °C (M. furfur) and 33 °C (M. globosa), and then the cultures were streaked onto Leeming and Notman agar (MLNA) and incubated for 48–72 h at 35 °C for M. furfur and at 33 °C for M. globosa. The fungal inoculum for the testing was prepared by suspending in phosphate buffer (PB) 10 mM pH 7 4–5 colonies of about 1 mm diameter. The fungal suspension was then adjusted to a final optical density of 0.5 McFarland standard (1–5 × 10^6 cells/mL). The compound solutions were tested in a range of concentrations from 0.01 μg/mL to 256 μg/mL, and 50 μL were then added in 96 wells microtiter plates with 50 μL of fungal inoculum and incubated for 24–48 h at 35 °C. Growth and sterility controls were performed. […] Compounds 3a, 3c, 5b, 7a–d, 9c, 11e, 11i, and 14a,b were selected as representatives of the chemical moieties synthesized prior to their screen on yeasts of biomedical relevance such as M. pachydermatis DSMZ 6172, C. albicans ATCC 10231, and C. glabrata ATCC 90030 (DSMZ 11226) strains. The clinical used drugs Ketoconazole, SeS2, and Amphotericin B were included as references (Table 1).

[3] = tested on: T3, ATCC M. furfur 14521; experiment: microbe, parasite or virus in culture; details: Malassezia furfur
T3 construct: ATCC 14521
Protocol: as §1

[4] = molecular target: T4, MpaCA (Malassezia pachydermatis, UniProt A0A0M8MPA4); experiment: stopped-flow CO2 hydrase assay; format: biochemical
T4 construct: gene Malapachy_3798
T4 sequence (A0A0M8MPA4 1-242): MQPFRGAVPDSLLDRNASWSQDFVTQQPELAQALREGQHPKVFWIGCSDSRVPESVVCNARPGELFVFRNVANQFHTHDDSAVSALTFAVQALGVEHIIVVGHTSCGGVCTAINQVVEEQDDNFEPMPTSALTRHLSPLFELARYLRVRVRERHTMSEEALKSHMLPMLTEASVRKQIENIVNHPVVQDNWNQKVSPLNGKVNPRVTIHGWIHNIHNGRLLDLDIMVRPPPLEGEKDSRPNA

[5] = tested on: T5, M. pachydermatis DSMZ 6172; experiment: microbe, parasite or virus in culture; set-up: broth microdilution MIC, M. pachydermatis and Candida, 35 °C; details: Malassezia pachydermatis, DSMZ6172
T5 construct: DSMZ 6172 (CDC 16334)
Protocol: as §1

With `NS(=O)(=O)c1ccc(NC(=[Se])NC(=O)c2ccc(Br)cc2F)cc1` [7h, 4-Bromo-2-fluoro-N-((4-sulfamoylphenyl)carbamoselenoyl)benzamide] the Ki [1] was 0.764 µM, the MIC [2] was 64 µg/mL (≈ 134 µM) and the MIC [3] was 3.3 ± 1.15 µg/mL (≈ 6.89 µM). The Ki [4] was 68.5 µM and the MIC [5] was 0.5 µg/mL (≈ 1.04 µM).
In the case of `NS(=O)(=O)c1ccc(NC(=[Se])NC(=O)c2ccc(CCl)cc2)cc1` [7i, 4-(Chloromethyl)-N-((4-sulfamoylphenyl)carbamoselenoyl)benzamide], the Ki [1] is reported as 0.877 µM, the MIC [3] is reported as 16 µg/mL (≈ 37.1 µM) and the Ki [4] is reported as 67.7 µM. For the same molecule, the MIC [5] was 6.7 ± 2.31 µg/mL (≈ 15.6 µM).
`NS(=O)(=O)c1ccc(NC(=[Se])NC(=O)c2ccc(/N=N/c3ccccc3)cc2)cc1` [7j, (E)-4-(Phenyldiazenyl)-N-((4-sulfamoylphenyl)carbamoselenoyl)benzamide] gave a Ki [1] of 2.86 µM, an MIC [2] of 24 ± 13.9 µg/mL (≈ 49.3 µM) and an MIC [3] of 21.3 ± 9.24 µg/mL (≈ 43.8 µM). The Ki [4] was 37 µM and the MIC [5] was 2 µg/mL (≈ 4.11 µM).
`NS(=O)(=O)c1ccc(NC(=[Se])NC(=O)c2ccc(F)cc2)cc1` [7k, 4-Fluoro-N-((4-sulfamoylphenyl)carbamoselenoyl)benzamide] showed a Ki [1] of 8.29 µM, an MIC [2] of 256 µg/mL (≈ 640 µM) and an MIC [3] of 5.3 ± 2.31 µg/mL (≈ 13.2 µM). The Ki [4] was 80.8 µM and the MIC [5] was 0.5 µg/mL (≈ 1.25 µM).
`NS(=O)(=O)c1cccc(NC(=[Se])NC(=O)c2ccccc2)c1` [8a] gave a Ki [1] of 4.14 µM, an MIC [2] of 128 µg/mL (≈ 335 µM) and an MIC [3] of 21.3 ± 9.24 µg/mL (≈ 55.7 µM). The Ki [4] was 33.7 µM and the MIC [5] was 2 µg/mL (≈ 5.23 µM).
For `CCCCCCCc1ccc(C(=O)NC(=[Se])Nc2cccc(S(N)(=O)=O)c2)cc1` [8b, 4-Heptyl-N-((3-sulfamoylphenyl)carbamoselenoyl)benzamide], the Ki [1] was 2.19 µM, the MIC [2] was 213 ± 73.9 µg/mL (≈ 444 µM) and the MIC [3] was 6.7 ± 2.31 µg/mL (≈ 13.9 µM). For the same molecule, the Ki [4] was 49.3 µM and the MIC [5] was 0.8 ± 0.29 µg/mL (≈ 1.66 µM).
`NS(=O)(=O)c1cccc(NC(=[Se])NC(=O)c2cc(Br)cc(OC(F)(F)F)c2)c1` [8c, 3-Bromo-N-((3-sulfamoylphenyl)carbamoselenoyl)-5-(trifluoromethoxy)benzamide] showed a Ki [1] of 7.65 µM, an MIC [2] of 256 µg/mL (≈ 470 µM) and an MIC [3] of 9.3 ± 6.11 µg/mL (≈ 17.1 µM). It also gave a Ki [4] of 86.1 µM and an MIC [5] of 2 µg/mL (≈ 3.67 µM).
Work on `NS(=O)(=O)c1cccc(NC(=[Se])NC(=O)c2ccc(F)cc2)c1` [8d, 4-Fluoro-N-((3-sulfamoylphenyl)carbamoselenoyl)benzamide] yielded a Ki [1] of 7.3 µM, an MIC [2] of 256 µg/mL (≈ 640 µM) and an MIC [3] of 256 µg/mL (≈ 640 µM). It also gave a Ki [4] of 79.5 µM and an MIC [5] of 2 µg/mL (≈ 5 µM).
In the case of `NS(=O)(=O)c1cccc(NC(=[Se])NC(=O)c2ccc(I)cc2)c1` [8e, 4-Iodo-N-((3-sulfamoylphenyl)carbamoselenoyl)benzamide], the Ki [1] is reported as 8.74 µM, the MIC [2] is reported as > 256 µg/mL and the MIC [3] is reported as 6.7 ± 2.31 µg/mL (≈ 13.2 µM). For the same molecule, the Ki [4] was 77.6 µM and the MIC [5] was 8 µg/mL (≈ 15.7 µM).
Work on `NS(=O)(=O)c1cccc(NC(=[Se])NC(=O)c2ccc(Cl)cc2)c1` [8f, 4-Chloro-N-((3-sulfamoylphenyl)carbamoselenoyl)benzamide] yielded a Ki [1] of 2.08 µM, an MIC [2] of 128 µg/mL (≈ 307 µM) and an MIC [3] of 64 µg/mL (≈ 154 µM). The Ki [4] was 74.7 µM and the MIC [5] was 16 µg/mL (≈ 38.4 µM).
For `NS(=O)(=O)c1cccc(NC(=[Se])NC(=O)c2ccc(Br)cc2F)c1` [8g, 4-Bromo-2-fluoro-N-((3-sulfamoylphenyl)carbamoselenoyl)benzamide], the Ki [1] was 3.48 µM, the MIC [2] was 128 µg/mL (≈ 267 µM) and the MIC [3] was 8 µg/mL (≈ 16.7 µM). For the same molecule, the Ki [4] was 65.7 µM and the MIC [5] was 13.3 ± 4.6 µg/mL (≈ 27.8 µM).
`NS(=O)(=O)c1ccc(CCNC(=[Se])NC(=O)c2ccccc2)cc1` [9a] was tested, and the Ki [1] was 0.565 µM, the MIC [2] was 32 µg/mL (≈ 78 µM) and the MIC [3] was 4 µg/mL (≈ 9.75 µM). For the same molecule, the Ki [4] was 73.9 µM and the MIC [5] was 1 µg/mL (≈ 2.44 µM).
Work on `CCCCCCCc1ccc(C(=O)NC(=[Se])NCCc2ccc(S(N)(=O)=O)cc2)cc1` [9b, 4-Heptyl-N-((4-sulfamoylphenethyl)carbamoselenoyl)benzamide] yielded a Ki [1] of 6.39 µM, an MIC [2] of 256 µg/mL (≈ 503 µM) and an MIC [3] of 1.7 ± 0.58 µg/mL (≈ 3.34 µM). For the same molecule, the Ki [4] was > 10 µM and the MIC [5] was 1.7 ± 0.58 µg/mL (≈ 3.34 µM).
`NS(=O)(=O)c1ccc(CCNC(=[Se])NC(=O)c2ccc(F)cc2)cc1` [9d, 4-Fluoro-N-((4-sulfamoylphenethyl)carbamoselenoyl)benzamide] showed a Ki [1] of 8 µM, an MIC [2] of 128 µg/mL (≈ 299 µM) and an MIC [3] of 2.3 ± 2.31 µg/mL (≈ 5.37 µM). For the same molecule, the Ki [4] was 75 µM and the MIC [5] was 1 µg/mL (≈ 2.33 µM).
With `NS(=O)(=O)c1ccc(CCNC(=[Se])NC(=O)c2ccc(I)cc2)cc1` [9e, 4-Iodo-N-((4-sulfamoylphenethyl)carbamoselenoyl)benzamide] the Ki [1] was 1.57 µM, the MIC [2] was 32 µg/mL (≈ 59.7 µM) and the MIC [3] was 3.3 ± 1.15 µg/mL (≈ 6.15 µM). The Ki [4] was 83.3 µM and the MIC [5] was 1 µg/mL (≈ 1.86 µM).
With `NS(=O)(=O)c1ccc(CCNC(=[Se])NC(=O)c2ccc(/N=N/c3ccccc3)cc2)cc1` [9f, (E)-4-(Phenyldiazenyl)-N-((4-sulfamoylphenethyl)carbamoselenoyl)benzamide] the Ki [1] was 2.39 µM, the MIC [2] was 8 µg/mL (≈ 15.6 µM) and the MIC [3] was 2.7 ± 1.15 µg/mL (≈ 5.25 µM). For the same molecule, the Ki [4] was 88.8 µM and the MIC [5] was 3.33 ± 1.15 µg/mL (≈ 6.47 µM).
